Results taken from patent publication US20220047598A1, “Use of Casein Kinase 1 Inhibitors For Treating Vascular Diseases” (Qanatpharma AG, priority 2018, published 2022).
“Also recorded” adds a separate entry of the source.

Columns and labels:
[1] = test system: mouse cremaster skeletal muscle resistance arteries; assay: Phenylephrine (agonist)-induced vasoconstriction in isolated cremaster resistance arteries; details: for phenylephrine-induced vasoconstriction (vessel health): wild-type arteries treated in vitro
[2] = test system: mouse cremaster skeletal muscle resistance arteries; assay: Pressure myography of isolated cremaster skeletal muscle resistance arteries: myogenic responsiveness, compound applied in vitro; details: for dose dependence of reduction in myogenic responsiveness: dose-response in vitro, n=4-6 vessels per dose
Method: (§1) Referring to FIG. 1, microvascular smooth muscle cells were cultured form mouse mesenteric arteries and ERK1/2 phosphorylation was assessed by standard western blotting. Murine cremaster skeletal muscle resistance arteries were assessed by pressure myography. mTNF reverse signaling was induced by the intrinsically active TNF type I receptor construct, sTNFR1-Fc.
Referring to FIG. 3, mouse cremaster skeletal muscle resistance arteries were isolated and cannulated for pressure myography. Stepwise increases in transmural pressure (20-100 mmHg in 20 mmHg steps) elicit myogenic vasoconstriction.
Referring to FIG. 4, mouse cremaster skeletal muscle resistance arteries were isolated and cannulated for pressure myography. Stepwise increases in transmural pressure (20-100 mmHg in 20 mmHg steps) elicit myogenic vasoconstriction.
(§2) Referring to FIG. 5, mouse cremaster skeletal muscle resistance arteries were isolated at mid-rest phase (ZT7) or mid-active phase (ZT19) and cannulated for pressure myography. One-step increases in transmural pressure (60 to 100 mmHg) elicit myogenic vasoconstriction. […] (FIG. 5c) Cremaster muscle resistance arteries underwent pressure myography and western blotting subsequently assessed ERK1/2 phosphorylation. […] (FIG. 5d) Representative western blot.
Referring to FIG. 6a to c, mice underwent myocardial infarction (ligation of the left-anterior descending coronary artery) or sham surgery. […] Cremaster skeletal muscle resistance arteries were isolated and cannulated for pressure myography.

[3] = test system: ERK1/2 phosphorylation in cremaster resistance arteries; assay: ERK1/2 phosphorylation by western blot in isolated cremaster resistance arteries after pressure myography; set-up: species or system mouse
Excerpt: (§3) Referring to FIG. 3, mouse cremaster skeletal muscle resistance arteries were isolated and cannulated for pressure myography. Stepwise increases in transmural pressure (20-100 mmHg in 20 mmHg steps) elicit myogenic vasoconstriction. […] (FIG. 3d) CKI-7 is not effective in the absence of TNF signaling (i.e., TNF knockout arteries, TNF KO). (FIG. 3e) Phenylephrine-induced vasoconstriction in TNF KO arteries is not affected by CKI-7.
as §2, with “blot. (FIG. 5e) Resting diameter of the vessels is not affected by PF-670462. (FIG. 5f) Prior to administration of PF-670462, vessel health is intact as shown by robust vasoconstriction to phenylephrine. […] (FIG. 5h) Vessel health, indicated by robust phenylephrine-induced vasoconstriction, is not affected by PF-670462 administration.” for “blot.”

[4] = test system: mTNF reverse signaling in cremaster skeletal muscle resistance arteries; assay: sTNFR1-Fc-stimulated vasoconstriction / mTNF reverse signaling in cremaster resistance arteries; set-up: species or system mouse
Method: as §1, §3

[5] = test system: mTNF reverse signaling (ERK1/2 phosphorylation) in mesenteric vascular smooth muscle cells; assay: ERK1/2 phosphorylation by western blot in microvascular smooth muscle cells cultured from mouse mesenteric arteries; assay type: cell-based; details: for sTNFR1-Fc-induced ERK1/2 phosphorylation: microvascular smooth muscle cells, inhibitor concentration not given
Method: as §1
These findings were verified in cremaster skeletal muscle resistance arteries. […] Importantly, none of the above treatments affected agonist-induced vasoconstriction.
as §3

[6] = test system: heart failure (myocardial infarction) mice; assay: Chronic treatment of mice after myocardial infarction (heart failure) or sham surgery; assay type: in vivo, mouse; details: 7 wks
Method: Referring to FIG. 6g to j, following myocardial infarction or sham surgery, mice were chronically treated with PF-670462 (30 mg/kg, intraperitoneal injection) or vehicle (DMSO) for 7 wks (5 days/wk). […] (FIG. 6h) HF-induced elevations in myogenic tone are normalized by chronic treatment with PF-670462. (FIG. 6i)
Phenylephrine-induced vasoconstriction is intact with chronic PF-670462 treatment. Reduced tone at lower concentrations of phenylephrine in the PF-670462-treated group is the result of changes in resting myogenic tone. (FIG. 6j) Cardiac output, the quantification of blood outflow from the heart assessed with echocardiography, is elevated with chronic PF-670462 treatment.

[7] = test system: CK1D/E; details: read-out: published IC50; cited from earlier work
[8] = Mean arterial blood pressure after acute injection; assay type: in vivo, mouse; details: acute injection 30 mg/kg intraperitoneal, n=3 per group
[9] = test system: cremaster skeletal muscle resistance arteries; assay: In vivo treatment of naive mice, then pressure myography of cremaster arteries; set-up: species or system mouse; details: for myogenic responsiveness: naive mice, 24 hrs later, ZT7
Method: Referring to FIG. 6d to f, naive mice were treated with PF-670462 (30-50 mg/kg dissolved in 200 μL water, intraperitoneal injection) or vehicle (200 μL water). 24 hrs later, in mid-rest phase (ZT7), cremaster skeletal muscle resistance arteries underwent pressure myography. […] (FIG. 6e) Phenylephrine-induced vasoconstriction is not altered by in vivo application of PF-670462.

[10] = test system: mTNF reverse signaling in human embryonic kidney (HEK) cells; assay: mTNF reverse signaling (ERK1/2 phosphorylation) in transfected HEK cells stimulated with TNF antibody; assay type: cell-based; details: HEK cells transfected 24 hrs, stimulated 5 min
Excerpt: Importantly, the cytoplasmic tail of mTNF contains the casein kinase 1 (CK1) recognition site (S(P)-X-X-S) that is removed in Trunc TNF, indicating the necessity for CK1 binding in mTNF reverse signaling.

[11] = test system: skeletal muscle resistance arteries; details: scavenging TNF; cited from earlier work
[12] = scavenging TNF; cited from earlier work
[13] = in vitro application, concentration not given
[14] = chronic treatment 30 mg/kg intraperitoneal

In the case of NCCNS(=O)(=O)c1ccc(Cl)c2ccncc12 [CKI-7], the “phenylephrine-induced vasoconstriction in TNF KO arteries” value ([1]; TNF KO arteries) is reported as “not affected”, the “phenylephrine-induced vasoconstriction (vessel health)” value [1] is reported as “remains intact” and the myogenic responsiveness ([2]; 10 μM in vitro, transmural pressure 20-100 mmHg in 20 mmHg steps) is reported as “reduces myogenic responsiveness”. For the same compound, the “myogenic responsiveness in TNF knockout arteries” value ([2]; TNF−/− (TNF KO) arteries, in vitro) was “not effective”, the “dose dependence of reduction in myogenic responsiveness” value [2] was “dose-dependent reductions” and the myogenic responsiveness [2, 13] was “reduces myogenic responsiveness”. The “sTNFR1-Fc-stimulated ERK1/2 phosphorylation” value ([3]; isolated cremaster resistance arteries after pressure myography) was “inhibited”, the “sTNFR1-Fc-induced mTNF reverse signaling” value ([4]; cremaster arteries, in vitro application) was “abrogates” and the sTNFR1-Fc-stimulated vasoconstriction ([4]; sTNFR1-Fc 100 ng/mL) was “prevented”. For the same compound, the “ERK1/2 phosphorylation in response to sTNFRI-Fc” value ([5]; mesenteric vascular smooth muscle cells, inhibitor 1 μM) was “inhibited” and the “sTNFR1-Fc-induced ERK1/2 phosphorylation” value [5] was “abolished”.

With Nc1ncnc2c1c(COc1cccc(Cl)c1)nn2C1CCOCC1 [PF-4800567] the “reduction in phenylephrine-induced vasoconstriction after correction to baseline tone” value ([1]; 30 μM dose, corrected to baseline tone) was “remains after correction to baseline tone”, the phenylephrine-induced vasoconstriction ([1]; arteries treated at the 30 μM dose) was “reduced” and the myogenic responsiveness ([2]; 30 μM in vitro) was “abrogates myogenic responsiveness”. For the same compound, the “dose dependence of reduction in myogenic responsiveness” value [2] was “dose-dependent reduction” and the “concentration inhibiting myogenic responses relative to the IC50” value ([2]; fold greater than the IC50) was roughly 1000 ×.

For Nc1nccc(-c2c(-c3ccc(F)cc3)ncn2C2CCCCC2)n1 [PF-670462], the phenylephrine-induced vasoconstriction ([1]; arteries from HF and sham mice, 550 nM in vitro) was “intact”, the “phenylephrine-induced vasoconstriction (vessel health)” value [1] was “intact; also recorded: not affected” and the “HF-induced elevations in myogenic tone” value ([6]; 30 mg/kg intraperitoneal, 5 days/wk) was “normalized”. For the same compound, the “cardiac output (echocardiography)” value [6, 14] was “elevated”, the phenylephrine-induced vasoconstriction [6, 14] was “intact” and the IC50 [7] was 7.7 to 14 nM. For the same compound, the myogenic responsiveness ([2]; 550 nM in vitro) was “reduces myogenic responsiveness”, the “myogenic responsiveness in arteries from HF mice” value ([2]; 550 nM in vitro in bath, 8 weeks post myocardial infarction) was “normalizes myogenic responsiveness” and the “myogenic tone in sham-operated mice” value ([2]; 550 nM in vitro in bath, sham arteries) was “does not affect myogenic tone”. For the same compound, the “myogenic tone in arteries from HF and sham mice” value ([2]; 550 nM in vitro, 30 minutes, both HF and sham groups) was “attenuated to same level”, the “reversibility of the reduction in myogenic responsiveness” value ([2]; 550 nM in vitro, repeated replacements of the incubating buffer) was “reversible” and the “myogenic responsiveness at mid-rest phase” value ([2]; 10 μM in vitro, ZT7, one-step pressure 60 to 100 mmHg) was “reduces myogenic responsiveness only during the rest phase (ZT7)”. For the same compound, the “myogenic responsiveness at mid-active phase” value ([2]; 10 μM in vitro, ZT19, one-step pressure 60 to 100 mmHg) was “not during the active phase (ZT19)”, the “dose dependence of reduction in myogenic tone at mid-rest phase” value ([2]; ZT7, n=4-7 vessels per dose) was “dose-dependently reduces myogenic tone” and the “resting diameter of the vessels” value ([2]; ZT7/ZT19 arteries) was “not affected”. For the same compound, the vessel dilation ([2]; ZT7/ZT19 arteries, before pressure stimulation) was “not affected”, the “dose dependence of reduction in myogenic responsiveness” value [2] was “dose-dependent decreases” and the myogenic responsiveness [2, 13] was “reduces myogenic responsiveness”. For the same compound, the “myogenic responsiveness in wild-type arteries” value ([2]; wild-type (WT) arteries, compared with TNF knockout) was “inhibits myogenic responsiveness”, the “ERK1/2 phosphorylation, ZT7 versus ZT19” value ([3]; cremaster arteries isolated at ZT7 or ZT19) was “reduces ERK1/2 phosphorylation to a greater extent during the rest phase (ZT7)” and the “mean arterial blood pressure (MAP)” value [8] was “reduces mean arterial blood pressure”. For the same compound, the “sTNFR1-Fc-induced ERK1/2 phosphorylation” value [5] was “abolished”, the myogenic responsiveness ([9]; 30 mg/kg intraperitoneal) was “reduce myogenic responsiveness” and the myogenic responsiveness ([9]; 50 mg/kg intraperitoneal) was “reduce myogenic responsiveness”. The “myogenic responsiveness in isolated cremaster arteries” value ([9]; applied in vivo, dose not given) was “reduced myogenic responsiveness” and the phenylephrine-induced vasoconstriction ([9]; in vivo application 30-50 mg/kg intraperitoneal) was “not altered”.

For Adalimumab, the “mTNF reverse signaling (ERK1/2 phosphorylation)” value [10] was “not stimulated unless the HEK cells express a tumour necrosis factor (TNF) plasmid construct”.

In the case of Etanercept, the “skeletal muscle resistance artery myogenic responsiveness” value [11] is given as “attenuates skeletal muscle resistance artery myogenic responsiveness” and the systemic blood pressure [12] is given as “reduces systemic blood pressure”.
